Results: patent US10266526B2, “Substituted 1,2,3-triazoles as SMYD inhibitors for treating cancer” (EPIZYME, INC., priority 2014, dated 2019)
pIC50: −log10 of the molar value. Structures can show the parent of a compound that is named as a salt.

Each compound was assayed against SMYD3 (Homo sapiens (Human), UniProt Q9H7B4) (assay: SMYD3 biochemical assay (SMYD3 enzyme assay on MEKK2 protein substrate, 3H-SAM scintillation proximity assay)). Settings: Table 1A; average of n = 1 to n = 50; read-out: SMYD3 Biochem IC50.
SMYD3, sequence (Q9H7B4 whole entry): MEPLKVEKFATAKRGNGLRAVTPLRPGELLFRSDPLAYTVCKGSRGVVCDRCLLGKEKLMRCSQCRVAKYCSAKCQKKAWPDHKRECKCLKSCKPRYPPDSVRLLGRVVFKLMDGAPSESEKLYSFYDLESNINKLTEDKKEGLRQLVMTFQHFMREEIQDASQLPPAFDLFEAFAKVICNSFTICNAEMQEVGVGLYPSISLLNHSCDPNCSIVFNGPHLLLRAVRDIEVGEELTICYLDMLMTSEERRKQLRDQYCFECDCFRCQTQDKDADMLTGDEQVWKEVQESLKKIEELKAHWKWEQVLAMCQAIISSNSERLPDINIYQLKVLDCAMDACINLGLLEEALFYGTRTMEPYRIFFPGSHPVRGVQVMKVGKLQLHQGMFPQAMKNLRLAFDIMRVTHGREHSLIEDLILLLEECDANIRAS
Procedure, shortened: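 Native full-length human SMYD3, expressed in E. coli, was preincubated with compound for 30 min at room temperature in 25 mM Tris-Cl pH 8.0, 1 mM TCEP, 0.005% BSG and 0.005% Tween 20. ³H-SAM plus GST-MEKK2 then started the reaction. It was stopped with unlabeled SAM (100 uM final), and methylated MEKK2 was read by SPA.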

pIC50	Compound
< 5.00	C[C@H]1C[C@@H](NC(=O)c2ccccc2)CCN1C(=O)C1CCC(N)CC1 (mixture of isomers) [compound 567, (±)-cis-N-(1-(4-aminocyclohexane-1-carbonyl)-2-methylpiperidin-4-yl)benzamide]
< 5.00	C[C@@H]1C[C@H](NC(=O)c2ccccc2)CCN1C(=O)C1CCC(N)CC1 (mixture of isomers) [compound 558, (±)-cis-N-(1-(4-aminocyclohexane-1-carbonyl)-2-methylpiperidin-4-yl)benzamide]
< 4.30	NCCC(=O)N[C@H]1CC[C@H](NC(=O)c2nc3ccncc3s2)CC1 [compound 532, N-((1r,4r)-4-(3-aminopropanamido)cyclohexyl)thiazolo[5,4-c]pyridine-2-carboxamide]
< 4.30	NCCCC(=O)N[C@H]1CC[C@H](NC(=O)c2nnc[nH]2)CC1 [compound 540, N-((1r,4r)-4-(4-aminobutanamido)cyclohexyl)-4H-1,2,4-triazole-3-carboxamide]

Same assay, conditions: read-out: SMYD3 Biochem IC50

pIC50	Compound
< 4.00	Cc1nscc1C(=O)N[C@H]1CC[C@H](NC(=O)CCN)CC1 [compound 347, N-((1r,4r)-4-(3-aminopropanamido)cyclohexyl)-3-methylisothiazole-4-carboxamide]
< 4.00	N[C@H]1CC[C@H](NC(=O)c2nc3ccc(F)cc3s2)CC1 [compound 500, N-((1r,4r)-4-aminocyclohexyl)-6-fluorobenzo[d]thiazole-2-carboxamide]
4.65	N[C@H]1CC[C@H](NC(=O)c2cc3ccccc3nc2O)CC1 [compound 475, N-((1r,4r)-4-aminocyclohexyl)-2-hydroxyquinoline-3-carboxamide]
< 4.00	NCCC(=O)N[C@H]1CC[C@H](NS(=O)(=O)c2ccc3c(c2)CC(=O)N3)CC1 [compound 449, 3-amino-N-((1r,4r)-4-((2-oxoindoline)-5-sulfonamido)cyclohexyl)propanamide]
4.16	Cc1cccc2cc(C(=O)N[C@H]3CC[C@H](N)CC3)[nH]c12 [compound 343, N-((1r,4r)-4-aminocyclohexyl)-7-methyl-1H-indole-2-carboxamide]
< 4.00	CC(NC(=O)c1ccc2cnccc2c1)C1CCN(C(=O)[C@H](C)N)CC1 (stereo partly drawn) [compound 194, N-(1-(1-(L-alanyl)piperidin-4-yl)ethyl)isoquinoline-6-carboxamide]
< 4.00	Cc1cccc2cc(C(=O)NC(C)C3CCN(C(=O)[C@H](C)N)CC3)[nH]c12 (stereo partly drawn) [compound 300, N-(1-(1-(L-alanyl)piperidin-4-yl)ethyl)-7-methyl-1H-indole-2-carboxamide]
4.35	NCCC(=O)N[C@H]1CC[C@H](NC(=O)c2cccnc2O)CC1 [compound 410, N-((1r,4r)-4-(3-aminopropanamido)cyclohexyl)-2-hydroxynicotinamide]
4.44	Cc1cncc(C(=O)N[C@H]2CC[C@H](NC(=O)CCN)CC2)c1 [compound 344, N-((1r,4r)-4-(3-aminopropanamido)cyclohexyl)-5-methylnicotinamide]
< 4.30	N[C@H]1CC[C@H](NC(=O)c2cncc(O)c2)CC1 [compound 515, N-((1r,4r)-4-aminocyclohexyl)-5-hydroxynicotinamide]
4.63	NCCC(=O)N[C@H]1CC[C@H](NC(=O)c2cc(O)nc3ccccc23)CC1 [compound 200, N-((1r,4r)-4-(3-aminopropanamido)cyclohexyl)-2-hydroxyquinoline-4-carboxamide]
< 4.00	N[C@H]1CC[C@H](NC(=O)c2ccccn2)CC1 [compound 251, N-((1r,4r)-4-aminocyclohexyl)picolinamide]
< 4.00	NCCC(=O)N[C@H]1CC[C@H](NC(=O)c2ccc(O)nc2)CC1 [compound 294, N-((1r,4r)-4-(3-aminopropanamido)cyclohexyl)-6-hydroxynicotinamide]
< 4.00	COc1cc(C(=O)NC(C)C2CCN(C(=O)[C@H](C)N)CC2)c2ccccc2n1 (stereo partly drawn) [compound 221, N-(1-(1-(L-alanyl)piperidin-4-yl)ethyl)-2-methoxyquinoline-4-carboxamide]
< 4.00	N[C@H]1CC[C@H](NC(=O)Cc2cc(F)cc(F)c2)CC1 [compound 362, N-((1r,4r)-4-aminocyclohexyl)-2-(3,5-difluorophenyl)acetamide]
4.46	COc1ccc2cc(C(C)C(=O)NC(C)C3CCN(C(=O)[C@H](C)N)CC3)ccc2c1 (stereo partly drawn) [compound 334, N-(1-(1-(L-alanyl)piperidin-4-yl)ethyl)-2-(6-methoxynaphthalen-2-yl)propanamide]
4.08	CC(NC(=O)CCCn1ccnc1)C1CCN(C(=O)[C@H](C)N)CC1 (stereo partly drawn) [compound 241, N-(1-(1-(L-alanyl)piperidin-4-yl)ethyl)-4-(1H-imidazol-1-yl)butanamide]
< 4.00	NCCC(=O)N[C@H]1CC[C@H](NC(=O)c2cn3ncccc3n2)CC1 [compound 446, N-((1r,4r)-4-(3-aminopropanamido)cyclohexyl)imidazo[1,2-b]pyridazine-2-carboxamide]
5.27	NCCC(=O)N[C@H]1CC[C@H](NC(=O)c2ccc3c(c2)C(=O)C(=O)N3)CC1 [compound 504, N-((1r,4r)-4-(3-aminopropanamido)cyclohexyl)-2,3-dioxoindoline-5-carboxamide]

Same assay, conditions: read-out: SMYD3 Biochem IC50 (μM)*

IC50 [µM]	Compound
38.9	CN(C)Cc1ccc(C(=O)N[C@H]2CC[C@H](N)CC2)o1 [compound 79, N-((1r,4r)-4-aminocyclohexyl)-5-((dimethylamino)methyl)furan-2-carboxamide]
9.37	CC(NC(=O)c1ccc2c(c1)CC(=O)N2)C1CCN(C(=O)[C@@H](C)N)CC1 (stereo partly drawn) [compound 87, N-(1-(1-(D-alanyl)piperidin-4-yl)ethyl)-2-oxoindoline-5-carboxamide]
61.2	N[C@H]1CC[C@H](NC(=O)c2cccc3c2OCC(=O)N3)CC1 [compound 115, N-((1r,4r)-4-aminocyclohexyl)-3-oxo-3,4-dihydro-2H-benzo[b][1,4]oxazine-8-carboxamide]
> 100	CC(=O)Nc1ccc(S(=O)(=O)N2CCC(NC(=O)c3cnccn3)CC2)cc1 [compound 5, N-(1-((4-acetamidophenyl)sulfonyl)piperidin-4-yl)pyrazine-2-carboxamide]
1.51	CCOC(=O)C(NC(=O)c1ccc2c(c1)CC(=O)N2)C1CCN(C(=O)[C@H](C)N)CC1 (stereo partly drawn) [compound 104, ethyl 2-(1-(L-alanyl)piperidin-4-yl)-2-(2-oxoindoline-5-carboxamido)acetate]
3.94	CC(NC(=O)c1ccc2[nH]c(=O)oc2c1)C1CCN(C(=O)[C@H](C)N)CC1 (stereo partly drawn) [Cpd. No. 94, N-(1-(1-((S)-2-aminopropanoyl)piperidin-4-yl)ethyl)-2-oxo-2,3-dihydrobenzo[d]oxazole-6-carboxamide Hydrochloride]
22.3	C[C@@H](N)C(=O)NCCCCNC(=O)c1ccc2c(c1)CC(=O)N2 [compound 114, (R)-N-(4-(2-aminopropanamido)butyl)-2-oxoindoline-5-carboxamide]
60.4	N[C@H]1CC[C@H](NC(=O)c2ccc3nc(O)cnc3c2)CC1 [compound 43, N-((1r,4r)-4-aminocyclohexyl)-2-hydroxyquinoxaline-6-carboxamide]
122	CCCCC1CC1C(=O)N[C@H]1CC[C@H](N)CC1 (some centres unmarked) [compound 53, N-((1r,4r)-4-aminocyclohexyl)-2-butylcyclopropane-1-carboxamide]
